Values of other authors in patent EP0433909A2, “Formulation” (CIBA-GEIGY AG, priority 1989, dated 1991).

Settings: for solubilities: in water, K. Wellinga et al., J. Agr. Food Chem. Vol 21, No.3 (1973), p.350

SMILES	solubilities	solubility in water (The Merck Index, 9th Ed. (1976), p. 416)
O=C(NC(=O)c1c(Cl)cccc1Cl)Nc1ccc(Cl)c(Cl)c1 [1-(2,6-dichlorobenzoyl)-3-(3,4-dichlorophenyl)-urea]	≤ 1 ppm	–
O=C(NC(=O)c1c(Cl)cccc1Cl)Nc1ccc(Cl)cc1 [1-(4-chlorophenyl)-3-(2,6-dichlorobenzoyl)-urea]	≤ 1 ppm	–
O=C(NC(=O)c1c(F)cccc1F)Nc1ccc(Cl)cc1 [1-(4-chlorophenyl)-3-(2,6-difluorobenzoyl)urea]	–	about 0.3 ppm
